This note sets out measurements from article PMC5310922, “A high-throughput phenotypic screen identifies clofazimine as a potential treatment for cryptosporidiosis” (PLoS Neglected Tropical Diseases, 2017).

Read-outs that look alike come from different tables or passages of the source.

What is called EC50 is the concentration at which the effect is half-maximal.

Series [1] is described as follows: HCT-8 host cell cytotoxicity, 48 h (nuclei count). To be noted: human. How it is done: Cells were then plated (5 μL/well) into 1536-well assay plates at a density of 5.5×10^5 cells/mL (2,750 cells/well).
Plates were then washed twice with phosphate buffered saline (PBS). […] To prevent non-specific binding, the cells were blocked with SuperBlock™ T20 blocking agent (Thermo) for 1 h at room temperature. Cryptosporidium parasites were stained with 1 μg/mL fluorescein isothiocyanate (FITC)-conjugated Vicia villosa lectin (Vector Laboratories) in 1:10 diluted SuperBlock™ in PBS-T, supplemented with 3 μM 4',6-diamidino-2-phenylindole (DAPI) to visualize host cell nuclei. Staining was for 1 h at room temperature in the dark. Finally, cells were washed twice with PBS-T and the plates were sealed with adhesive foil. The plates were imaged with a CellInsight CX5 High Content Screening Platform (Thermo) with a 10× objective. […] For 1536-well format assays (primary screening, triplicate reconfirmation, and dose-response reconfirmation, one microscopic field (802,511.39 μm^2) per well, and for the 384-well washout assay, 4 fields per well were captured. The software identified primary objects (HCT-8 host cells) and spots within allowed distances to the nuclei (Cryptosporidium). Both cytotoxicity against HCT-8 cells (number of nuclei relative to DMSO-treated controls) and Cryptosporidium inhibition (spot counts relative to DMSO-treated controls) were assessed.
Images were processed by the HCS Studio Scan software, and Selected Object Count (HCT-8 cells) and Spot Count (Cryptosporidium) were analyzed in Genedata Screener (v13.0-Standard). Spot Count and Selected Object Count were normalized to neutral controls minus inhibitors (floxuridine for Spot Count, and puromycin for Selected Object Count). For single-point primary assay plates, an additional run-wise median correction was applied to reduce screen artifacts (e.g. uneven dispense), whereas no correction was applied to triplicate reconfirmation and dose-response plates. For primary screening, a compound is considered a hit by a ≥ 70% reduction in Corrected Spot Count. Compounds that caused moderate cytotoxicity were filtered out (i.e., excluding all Corrected Selected Object Counts ≤ -60%). Dose-response curves were fit with Genedata Analyzer using the Smart Fit function.

A further series deals with Cryptosporidium parvum. The series is described as follows: C. parvum proliferation in HCT-8 cells, 48 h high-content imaging assay. To be noted: for EC50: Cryptosporidium parvum, 48 h; for EC99 against C. parvum: concentration used in washout assay. Type of series: cell-based, Cryptosporidium parvum (Iowa strain).
For series [2], the system named is C. parvum. Nature of the series: Host cell 3-h pre-treatment, with or without wash, then C. parvum infection. Particulars: for EC50: Cryptosporidium parvum, host cells pretreated 3 h, C. parvum, 48 hpi. It counts as cell-based, Cryptosporidium parvum. How it is done:
A set of parallel wells were also treated and not washed prior to infection. 48 hpi, infected cells were imaged as described above, and EC50s for each compound pre- and post-wash were determined.

Series [3] concerns C. parvum. Nature of the series: Mouse model of acute cryptosporidiosis, fecal oocyst shedding by flow cytometry. Type of series: in vivo, C57BL/6 IFNγ-/- mice. Particulars: for oocyst shedding, % of mock-dosed mice: 10 mg/kg oral on days 4, 5, 6 p.i., 10^4 oocysts, day 7 (within 24 h of end of treatment). On the procedure: Four week old female C57BL/6 IFNγ^-/- mice were purchased from the Jackson Laboratory and acclimated for four to ten days in specific pathogen-free conditions in the Health Sciences Biomedical Research Facility at the University of California, San Diego. Mice were provided water and chow (Teklad 2920X) ad libitum. […] Treatment regimens included 10 mg/kg, 100 mg/kg, and 0 mg/kg (vehicle only; n = 4 per group). Certain assays also involved gavage of characterized anticryptosporidial BKI-1294 (a kind gift from W. […] Oocysts were extracted via a modified discontinuous sucrose gradient technique. Briefly, […] solution was freshly prepared by dissolving 156.25 g sucrose and 2.5 mL phenol in 100 mL water. Fecal pellets were removed from storage then homogenized by vortexing and pipetting. […] Oocysts were floated from feces by centrifugation at 1,000×g for 20 min and collected with a pipet tip from the 1.064/1.103 specific gravity interface. Oocysts were rinsed once in cold PBS, pelleted by centrifugation at 15,000×g for 10 min, and resuspended in PBS. 50 μL aliquots were incubated for 30 min at room temperature with 0.25 μg fluorescein isothiocyanate-conjugated mouse anti-Cryptosporidium antibody (OW50-FITC, BioRad 2402-3007), then diluted to 200 μL with PBS. Samples were analyzed using a Guava EasyCyte flow cytometer and CytoSoft Data Acquisition and Analysis software (v5.3; Guava Technologies, Inc.), using a 100 s sampling interval, 0.59 μL/s flow rate, and logical gating of forward and side light scatter and OW50-FITC fluorescence signals. Each experimental run included positive and negative controls to calibrate region settings discriminating the oocyst-FITC population from background signals. Oocyst counts/mL sample values were exported to Excel (Microsoft Corp.) for normalization to counts/mg feces. Final graphing and statistical analyses of data were done using GraphPad Prism software (v6, GraphPad Software, Inc.). Two-way ANOVA with Dunnett's correction (Fig 4A) and unpaired multiple t-tests with False Discovery Rate approach (Fig 4B) were performed on % Vehicle data to determine significance between vehicle-treated and compound-treated mice.

The nature of series [4]: HEK293T 72 h cytotoxicity (CellTiter-Glo). Type of series: cell-based, human. Particulars: human. How it is done:
Two mammalian cell lines were used for counter-screening for general cytotoxicity of hit compounds: human embryonic kidney cells (HEK293T; ATCC CRL-3216) and human hepatocellular carcinoma cells (HepG2; ATCC HB-8065). […] Compounds were pre-spotted into tissue culture-treated white solid-bottomed 1536-well plates (Greiner) in a 1:3 dose-response dilution (top concentration 20 μM). HEK293T and HepG2 cells were diluted to 75×10^3 cells/mL and 150×10^3 cells/mL, respectively, and 5 μL/well were dispensed into assay plates with a MultiFlo FX Multi-Mode Dispenser (Biotek). […] At the completion of the assay, CellTiter-Glo (Promega) was prepared at 1:2 (reagent:water) of the manufacturer’s instructions, and 2 μL were dispensed into each well. After a 5 min incubation at room temperature, luminescence readings were measured with an EnVision Multilabel Plate Reader (Perkin Elmer). […] were uploaded into Genedata Screener (v13.0-Standard), and data normalized to DMSO- and puromycin-treated wells. A four-parameter non-linear regression curve fit was applied to dose-response data using Genedata to determine the half maximal cytotoxic concentration (CC50) of each compound.
On the technique in general: In ATP-based viability assays light output follows the ATP content of the culture.

Series [5] can be described thus: Pharmacokinetic study in mice (plasma, feces, urine). To be noted: 20 mg/kg oral; for fecal excretion (unchanged), first 24 h: mean ± SEM; for peak plasma concentration: mean ± SEM n=3.
[6] abbreviates: HCT-8 cells, read-out: EC50 against C. parvum.
Where [7] appears, read: in HCT-8 cells, value (SD; n), read-out: C. parvum 48H Assay EC50 [µM] (SD; n).
Setting [8] is: 7% Tween 80, 3% ethanol, 90% water.

Turning to `CC(C)/N=c1\cc2n(-c3ccc(Cl)cc3)c3ccccc3nc-2cc1Nc1ccc(Cl)cc1` [Clofazimine], in series [1] (HCT-8 cells), the CC50 at 48 h was over 12500 nM. For the same compound, in the series with Cryptosporidium parvum (C. parvum vs C. hominis EC50), the “fold more potent against C. parvum than C. hominis” value is ~ 20 fold. For the same compound, the EC50 in the series on Cryptosporidium parvum (setting [6]) came out at 0.015 µM; in the series with Cryptosporidium parvum (setting [7]) it was 0.0149 µM; in the series on C. parvum [2] (read-out: Post-wash EC50) it was 7 nM; with C. parvum [2] (read-out: Pre-wash EC50), 23 nM. In the series with Cryptosporidium parvum, the “EC99 against C. parvum” value was found to be 30 nM. In addition, the “inhibition of C. parvum proliferation after compound removal by repeated washes” value with C. parvum [2] (host cell pre-treatment, dose-response) is “near equipotent inhibition”. In addition, the “oocyst shedding, % of control group” value in the series on C. parvum [3] (10 mg/kg oral daily from day 4 p.i., within two days of treatment onset) was 2.5% ± 1.7%. In the series with C. parvum [3], the “oocyst shedding, % of mock-dosed mice” value was “below 1%”. The oocyst shedding entry in the series with C. parvum [3] (once daily for three consecutive days or a single high dose) was “reduction of oocyst shedding below the limit detectable by flow cytometry”. Moreover, the “oocyst shedding, % of mock-treated mice” value in the series with C. parvum [3] (single 100 mg/kg oral dose on day 4, 1×10^6 oocysts, second day after treatment) is 1.5% ± 0.4%. Besides, the CC50 at 72 h in series [4] (HEK293T cells, 72 h, value (SD; n), read-out: HEK293T 72H Cytotoxicity CC50 [µM] (SD; n)) is over 20 µM. In series [5], the “dosage excreted in the urine, first 48 h” value is under 0.15%. The “time plasma concentrations remained stable after the initial maximal concentration” value in series [5] is recorded as “at least 20 hours”. In addition, the “fecal excretion (unchanged), first 24 h” value in series [5] (MC-Tween) was 25.7% ± 13.3%; in series [5] (corn oil) it was 14.8% ± 3.1%. Besides, the peak plasma concentration amounted to 288 ± 2 ng/mL in series [5] (MC-Tween, within first 24 h) and 445 ± 61 ng/mL in series [5] (corn oil, within first 24 h). Besides, the “mean fecal excretion, next 48 h” value in series [5] (either formulation) is recorded as under 2%.
With `CCOc1ccc2cc(-c3nn(CC4CCN(C)CC4)c4ncnc(N)c34)ccc2c1` [BKI-1294], the CC50 at 48 h in series [1] was over 12500 nM. The half-maximal effective concentration (EC50) in the series on Cryptosporidium parvum (setting [6]) is 0.4 µM; in the series with Cryptosporidium parvum (setting [7]), 0.388 µM; in the series with C. parvum [2] (read-out: Post-wash EC50), 955 nM; with C. parvum [2] (read-out: Pre-wash EC50), over 12500 nM. Also, in the series with Cryptosporidium parvum, the “EC99 against C. parvum” value came out at 2000 nM. Further, in the series with C. parvum [3], the “oocyst shedding, % of mock-dosed mice” value was 18.1% ± 2.2%. This compound yielded a CC50 at 72 h in series [4] of 12.4 µM. In series [5], the “dosage excreted in the urine, first 48 h” value was 1.6%. In series [5], the “plasma concentration dropped to, within first 24 h post dosing” value amounted to 6.7 ± 0.3 ng/mL. The “fecal excretion (unchanged), first 24 h” value in series [5] (setting [8]) is reported as 8.9% ± 0.5%. The compound further gave a peak plasma concentration in series [5] (setting [8]) of 1282 ± 154 ng/mL.
